Test results taken from patent US20100056791A1, “Pyrazolopyridine carboxamide derivative and phosphodiesterase (pde) inhibitor containing the same” (priority 2006, published 2010).

Experiments:
[1] = system: histamine-induced bronchoconstriction; assay: Histamine-induced airway contraction reaction in guinea pigs; assay type: in vivo; settings: Cavia porcellus, iv, 0.5 min, i.v., 30 seconds after administration, read-out: Inhibition ratio; for inhibition in vivo at 0.3 mg/kg: 0.3 mg/kg administration (results in brackets); for inhibition in vivo at 0.1 mg/kg: 0.1 mg/kg administration (not in brackets)
Procedure: Guinea pigs were anesthetized with pentobarbital (30 mg/kg, i.p.). A cannula for intravenous administration, a cannula for collecting blood and measuring blood pressure, and a tracheal cannula were inserted into the left external jugular vein, right internal carotid artery, and trachea, respectively. The guinea pigs were maintained on artificial respiration under the conditions of 60 times/min and 10 mL/kg/stroke. The airflow from the side branch of the tracheal cannula was measured by a bronchospasm transducer (Ugo-Basile) and recorded on a computer via Power Lab (ADInstruments Japan). The guinea pigs were immobilized with gallamine (10 mg/kg, i.v.), and histamine was administered at 10-minute intervals (12.5 μg/kg, i.v.). […] We examined the inhibitory action of test compounds on histamine-induced bronchoconstriction 30 seconds after compounds administration. Bronchoconstriction was recorded as the amount of airflow, and the results were represented by the ratio of the maximum value of the histamine-induced airflow 30 seconds after the administration to the maximum value of the airflow before the administration. When the inhibition ratio≧90%, the results were represented by “+++.” When 90%>the inhibition ratio≧70%, the results were represented by “++.” When 70%>the inhibition ratio≧30%, the results were represented by “+.” The results shown in brackets are for 0.3 mg/kg administration, and the other results are for 0.1 mg/kg administration.

[2] = target: T1, PDE4B catalytic domain (PDE4Bcat) (Homo sapiens, UniProt Q07343); assay: Phosphodiesterase inhibitory activity ([3H]cAMP breakdown, recombinant PDE4Bcat); assay type: biochemical; settings: 30° C. 20 minutes, read-out: IC50(μmol/L) PDE4
T1 construct: The cDNA of PDE4B catalytic domain (hereinafter abbreviated as Cat) was isolated from human RNA by RT-PCR; made in house; host or cells: Sf9 insect cells (baculovirus, Gateway / Bac-to-Bac)
T1 sequence (Q07343 330-659 limits assumed): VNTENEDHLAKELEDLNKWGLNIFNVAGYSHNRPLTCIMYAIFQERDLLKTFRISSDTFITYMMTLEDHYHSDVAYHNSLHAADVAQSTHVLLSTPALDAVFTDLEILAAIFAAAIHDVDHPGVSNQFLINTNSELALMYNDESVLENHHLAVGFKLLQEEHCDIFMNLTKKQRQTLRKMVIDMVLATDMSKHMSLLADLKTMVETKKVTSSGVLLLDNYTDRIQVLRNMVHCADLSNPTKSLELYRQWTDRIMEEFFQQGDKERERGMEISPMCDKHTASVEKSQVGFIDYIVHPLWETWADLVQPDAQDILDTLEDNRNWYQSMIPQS
Description: The cDNA of PDE4B catalytic domain (hereinafter abbreviated as Cat) was isolated from human RNA by RT-PCR. The isolated cDNA fragments were inserted into Sf9 insect cells using Gateway system (product of Invitrogen Corporation) and Bac-to-Bac (registered trademark) Baculovirus Expression system (product of Invitrogen Corporation) to express a target PDE protein. The recombinant PDE4Bcat was purified from the culture supernatants or cell extracts of Sf9 cells expressing high levels of the PDE protein by ion exchange chromatography and was used for the following experiments.
A 4 mmol/L solution of each test compound was serially diluted four-fold with a 15% DMSO solution to prepare solutions with concentrations of 15 nmol/L to 4 mmol/L (the final concentrations used in the experiments were 1.5 nmol/L to 400 μmol/L). 10 μL of the prepared test compound solutions, [3H] cAMP diluted with a buffer solution (40 mmol/L Tris-HCl (pH: 7.4), 10 mmol/L MgCl2), and 40 μL of the recombinant human PDE protein (2×10^−6 units, 1 unit is defined as the amount of PDE that breaks down 1 μmol/L of cAMP in one minute under the conditions of a pH of 7.5 and 30° C.) were added to a 96-well plate. The mixtures were reacted at 30° C. for 20 minutes. Then, the resultant mixtures were reacted at 65° C. for 2 minutes. Subsequently, 25 μL of 1 mg/mL5′-nucleotidase (Crotalus atrox venom, product of Sigma) was added to the mixtures, and the mixtures were reacted at 30° C. for 10 minutes. After completion of the reaction, 200 μL of a solution of Dowex (300 mg/mL Dowex 1×8-400 (product of Sigma Aldrich), 33% ethanol) was added to the mixtures, and the mixtures were shaken at 4° C. for 20 minutes. Subsequently, 200 μL of MicroScint 20 (product of Packard) was added to the mixtures, and measurement was performed using a scintillation counter (Topcount, product of Packard). IC50 values were calculated using Graph Pad Prism v3.03 (product of GraphPad Software). When […], the results were represented by “+.” When 0.1 μmol/L>the IC50 value, the results were represented by “++.”

| Structure (SMILES) | inhibition in vivo at 0.3 mg/kg [1] | IC50 [2] | inhibition in vivo at 0.1 mg/kg [1] |
| --- | --- | --- | --- |
| CCc1cc2c(C(=O)Nc3c(Cl)c[n+]([O-])cc3Cl)ccc(OC)n2n1 [Example 11, 2-Ethyl-7-methoxypyrazolo[1,5-a]pyridine-4-carboxylic acid (3,5-dichloto-1-oxypyridin-4-yl)amide] | 70 to 90% | < 0.1 µmol/L |  |
| COc1ccc(C(=O)Nc2c(Cl)c[n+]([O-])cc2Cl)c2cc(C(F)(F)F)nn12 [Example 17, 7-Methoxy-2-trifluoromethylpyrazolo[1,5-a]pyridine-4-carboxylic acid (3,5-dichloro-1-oxypyridin-4-yl)amide] |  | < 0.1 µmol/L | 30 to 70% |
| COc1ccc(C(=O)Nc2c(Cl)cc(Cl)cc2Cl)c2cc(C(F)(F)F)nn12 [Example 18, 7-Methoxy-2-trifluoromethylpyrazolo[1,5-a]pyridine-4-carboxylic acid (2,4,6-trichlorophenyl)amide] |  | 0.1 to 10 µmol/L |  |
| COc1ccc(C(=O)Nc2c(Cl)cncc2Cl)c2cc(C3CC3)nn12 [Example 24, 2-Cyclopropyl-7-methoxypyrazolo[1,5-a]pyridine-4-carboxylic acid (3,5-dichloropyridin-4-yl)amide] |  | < 0.1 µmol/L | ≥ 90% |
| COc1ccc(C(=O)Nc2c(Cl)c[n+](O)cc2Cl)c2cc(C3CC3)nn12 [Example 25, 2-Cyclopropyl-7-methoxypyrazolo[1,5-a]pyridine-4-carboxylic acid (3,5-dichloro-1-oxypyridin-4-yl)amide] | ≥ 90% | < 0.1 µmol/L |  |
| CCc1cc2c(C(=O)Nc3c(Cl)cncc3Cl)cccn2n1 [Example 48, 2-Ethylpyrazolo[1,5-a]pyridine-4-carboxylic acid (3,5-dichloropyridin-4-yl)amide] |  | 0.1 to 10 µmol/L |  |
| CCOc1ccc(C(=O)Nc2c(Cl)cncc2Cl)c2cc(C(F)F)nn12 [Example 59, 2-Difluoromethyl-7-ethoxypyrazolo[1,5-a]pyridine-4-carboxylic acid (3,5-dichloropyridin-4-yl)amide] |  | < 0.1 µmol/L |  |
| COc1ccc(C(=O)Nc2c(Cl)c[n+](O)cc2Cl)c2cc(C#N)nn12 [Example 71, 2-Cyano-7-methoxypyrazolo[1,5-a]pyridine-4-carboxylic acid (3,5-dichloro-1-oxypyridin-4-yl)amide] |  | < 0.1 µmol/L |  |
| COc1ccc(C(=O)Nc2c(Cl)cncc2Cl)c2cc(C(=O)O)nn12 [Example 81, 4-(3,5-Dichloropyridin-4-ylcarbamoyl)-7-methoxypyrazolo[1,5-a]pyridine-2-carboxylic acid] |  | 0.1 to 10 µmol/L |  |
| CNc1ccc(C(=O)Nc2c(Cl)cncc2Cl)c2cc(C(F)(F)F)nn12 [Example 97, 7-Methylamino-2-trifluoromethylpyrazolo[1,5-a]pyridine-4-carboxylic acid (3,5-dichloropyridin-4-yl)amide] |  | < 0.1 µmol/L |  |
| CC(=O)c1ccc(C(=O)Nc2c(Cl)cncc2Cl)c2cc(C(F)(F)F)nn12 [Example 108, 7-Acetyl-2-trifluoromethylpyrazolo[1,5-a]pyridine-4-carboxylic acid (3,5-dichloropyridin-4-yl)amide] |  | < 0.1 µmol/L |  |
| COCc1ccc(C(=O)Nc2c(Cl)cncc2Cl)c2cc(C(F)(F)F)nn12 [Example 115, 7-Methoxymethyl-2-trifluoromethylpyrazolo[1,5-a]pyridine-4-carboxylic acid (3,5-dichloropyridin-4-yl)amide] |  | < 0.1 µmol/L |  |
| COc1ccc(C(=O)Nc2c(Cl)cncc2Cl)c2c(Cl)c(C(F)(F)F)nn12 [Example 118, 3-Chloro-7-methoxy-2-trifluoromethylpyrazolo[1,5-a]pyridine-4-carboxylic acid (3,5-dichloropyridin-4-yl)amide] |  | < 0.1 µmol/L |  |
| COc1ccc(C(=O)Nc2c(Cl)cncc2Cl)c2c(O)c(C(F)(F)F)nn12 [Example 119, 3-Hydroxy-7-methoxy-2-trifluoromethylpyrazolo[1,5-a]pyridine-4-carboxylic acid (3,5-dichloropyridin-4-yl)amide] |  | 0.1 to 10 µmol/L |  |
